In one experiment the test system is RBL2H3 cells. In words: Degranulation assay: β-hexosaminidase release during immune complex mediated degranulation. The format is cell-based, rat. The settings on record: Rattus norvegicus, RBL-2H3; for inhibition at 1 µM: read-out: Degranulation % inhibition at 1 μM; for pEC50: read-out: Degranulation EC50. A digest of the protocol:
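Fluorometric β-NAG read-out (Ex 355, Em 460 nm; 30 min, RT) of supernatant after DNP-BSA stimulation (45–60 min) of anti-DNP IgE-sensitized RBL2H3 cells. Compounds (0.5% DMSO) added 15 min before antigen; degranulation expressed as % β-hexosaminidase release or inhibition.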

Experiment [1] has as its system Collagen Induced Arthritis (CIA) in female Lewis rats. In words: In vivo chronic study: Collagen Induced Arthritis (CIA). Set-up: species or system rat. The settings on record: 2 × 30 mg/Kg. The source says: Collagen Induced Arthritis (CIA) is a well characterized model of human rheumatoid arthritis (RA) that can be induced in susceptible animals following immunization with type II collagen (cII) in Freund's adjuvant. […] Pathophysiology of CIA consists of T cell component, as evidenced by increased infiltration of T-cells in joint synovium and also, by attenuation of CIA in T-cell deficient mice. CIA development involves B cell component too, as is evidenced by circulating cII antibody in disease animals and also, failure to develop the disease in xid mice/B cell deficient mice/CXCR5 null mice. […] See, Pine, “Inflammation and bone erosion are suppressed in models of rheumatoid arthritis following treatment with a novel Syk inhibitor”, Clin. Immunol., 2007, 124(3):244-57; Xiong cha, “Suppression of the onset and progression of collagen-induced arthritis in rats by QFGJS, a preparation from an anti-arthritic Chinese herbal formula”, J. Ethnopharmacology (2007) 110:39-48; and Stolina, “The evolving systemic and local biomarker milieu at different stages of disease progression in rat collagen induced arthritis”, Biomarkers (2008) 13(7-8):692-712, which are herein incorporated by reference.
Female Lewis rats (8 per group, 6-8 weeks old) were immunized on day 1 with type II collagen (Immunization grade Bovine type II; Chondrex; Cat #20021) emulsified with Complete Freund's Adjuvant (Sigma; Cat# F5881) at a final concentration of 1.2 mg/mL). For the initial immunization, the animals were injected at the base of the tail with 300 μg of the cII (0.25 mL/rat). A booster injection of the same type II collagen emulsified with Incomplete Freund's Adjuvant (Sigma, Cat #F5506) (0.25 mL/rat) was given to the animals on day 8 at the base of the tail (100 μg). The final cII concentration in the booster was […].
Animals with an arthritic score of ≥1 were grouped and dosing with test compound (30 mg/kg bid) or methotrexate (0.5 mg/kg) started between about day 12 to day 14, with daily dosing of their respective compounds continuing for 10 days.
Edema: Paw volumes are measured by Plethysmometry for the animals before induction of CIA (Basal readings) and on Day 1, 3, 6 and 9 of dosing period. Both hind paw volumes were measured and edema was calculated by subtracting from the basal mean.
Arthritic score: Animals were scored for the symptoms of arthritis every day starting from Day of onset of disease till the end of the study. Both the hind paws were scored and the total scores were averaged and compared with control. The scoring pattern was as follows:
The percent inhibition of Edema was calculated with respect to control by the formula: […]
The percent inhibition of Arthritic score was calculated with respect to control by the formula: […]
Means of different groups were compared with control using one way ANOVA followed by Dunnett's test. Significance is represented as follows.

[2] abbreviates: Assay Protocol A (24 well format).
[3] abbreviates: Assay Protocol B (96 well format).

The text below walks through data of patent US10183944B2 (Asana Biosciences, LLC, priority 2011, dated 2019).

For orientation: inhibition means the drop in the measured response relative to a control, in per cent. The term pEC50 denotes the negative decadic logarithm of the EC50, by convention in mol/L.

pEC50: −log10 of the molar value. Read-outs that look alike come from different tables or passages of the source. Marks after values point to notes of the source that are not given here.

For `Cl.O=c1[nH]ncc2nc(-c3ccccc3)nc(Nc3ccc(CN4CCNCC4)cc3)c12` [Example 7, 2-phenyl-4-(4-(piperazin-1-ylmethyl)phenylamino)pyrimido[4,5-d]pyridazin-5(6H)-one hydrochloride], in the experiment with RBL2H3 cells (setting [2]), the inhibition at 1 µM was 92% and the pEC50 is 7.07.

For `O=C(O)C1CCN(c2ccc(Nc3nc(-c4ccccc4)nc4cn[nH]c(=O)c34)cc2)CC1` [Example 13, 1-(4-(5-oxo-2-phenyl-5,6-dihydropyrimido[4,5-d]pyridazin-4-ylamino)phenyl)piperidine-4-carboxylic acid], in the experiment with RBL2H3 cells (setting [2]), the inhibition at 1 µM worked out at 100% and the pEC50 is 7.33.

`O=C(O)C1CC12CCN(c1ccc(Nc3nc(-c4ccccc4)nc4cn[nH]c(=O)c34)cc1)CC2` (stereo not drawn) [Example 19, 6-(4-(5-oxo-2-phenyl-5,6-dihydropyrimido[4,5-d]pyridazin-4-ylamino)phenyl)-6-azaspiro[2.5]octane-1-carboxylic acid]: in the experiment on RBL2H3 cells (setting [2]), the inhibition at 1 µM is 100% and the negative-log EC50 (pEC50) was 7.72. In addition, in experiment [1], the “Percent inhibition of Edema (Day 9 of dosing)” value (“Percent inhibition of Edema” for short) is on record as 5** and the “Percent inhibition of Arthritic score (Day 10 of dosing)” value (from here on “Percent inhibition of Arthritic score”) is 20*.

As to `O=C(O)C1CC12CCN(c1ccc(Nc3nc(N4CCCCCC4)nc4cn[nH]c(=O)c34)cc1)CC2` (stereo not drawn) [Example 62, 6-(4-((2-(azepan-1-yl)-5-oxo-5,6-dihydropyrimido[4,5-d]pyridazin-4-yl)amino)phenyl)-6-azaspiro[2.5]octane-1-carboxylic acid], in the experiment with RBL2H3 cells (setting [3]), the inhibition at 1 µM was found to be 100% and the pEC50 was 7.31. Further, in experiment [1], the “Percent inhibition of Edema” value is on record as 69*** and the “Percent inhibition of Arthritic score” value is 81***.

As to `O=C(O)CC1CCN(c2ccc(Nc3nc(N4CCCCCC4)nc4cn[nH]c(=O)c34)cn2)CC1` [Example 108, 2-(1-(5-((2-(azepan-1-yl)-5-oxo-5,6-dihydropyrimido[4,5-d]pyridazin-4-yl)amino)pyridin-2-yl)piperidin-4-yl) acetic acid], in the experiment with RBL2H3 cells (setting [3]), the inhibition at 1 µM came to 98% and the pEC50 was 7.17. Also, in experiment [1], the “Percent inhibition of Edema” value is listed as 42*** and the “Percent inhibition of Arthritic score” value is 53***.

For `N#CCC1CCN(c2nc(Nc3ccc(N4CCC(O)CC4)cc3)c3c(=O)[nH]ncc3n2)CC1` [Example 189, 2-(1-(4-((4-(4-hydroxypiperidin-1-yl)phenyl)amino)-5-oxo-5,6-dihydropyrimido[4,5-d]pyridazin-2-yl)piperidin-4-yl)acetonitrile], in the experiment with RBL2H3 cells (setting [3]), the inhibition at 1 µM amounted to 98% and the negative logarithm of the EC50 (pEC50) was 7.85. In experiment [1], the “Percent inhibition of Edema” value is on record as 90*** and the “Percent inhibition of Arthritic score” value was 94***.

In the case of `N#CCC1CCN(c2nc(Nc3ccc(N4CCN(CCO)CC4)cc3)c3c(=O)[nH]ncc3n2)CC1` [Example 191, 2-(1-(4-((4-(4-(2-hydroxyethyl)piperazin-1-yl)phenyl)amino)-5-oxo-5,6-dihydropyrimido[4,5-d]pyridazin-2-yl)piperidin-4-yl)acetonitrile], in the experiment with RBL2H3 cells (setting [3]), the inhibition at 1 µM was found to be 92% and the pEC50 is 7.68. In addition, in experiment [1], the “Percent inhibition of Edema” value is recorded as 90*** and the “Percent inhibition of Arthritic score” value is 100***.
